Assay results taken from ChEMBL document CHEMBL1140142, “Myxochromide B3, a new member of the myxochromide family of secondary metabolites” (J Nat Prod, 2008).
Calls of active or inactive are those of the source.

Legend:
Assay type in all cases: functional, organism-based
Microbotryum violaceum = test: Antimicrobial activity against Microbotryum violaceum at 50 ug/disk by disk diffusion assay
[Chlorella] fusca = Antimicrobial activity against Chlorella fusca at 50 ug/disk by disk diffusion assay; conditions: Scenedesmus fuscus
Escherichia coli = test: Antimicrobial activity against Escherichia coli at 50 ug/disk by disk diffusion assay
Aspergillus ruber = test: Antimicrobial activity against Eurotium rubrum at 50 ug/disk by disk diffusion assay
Priestia megaterium = test: Antimicrobial activity against Bacillus megaterium at 50 ug/disk by disk diffusion assay
Mycotypha microspora = test: Antimicrobial activity against Mycotypha microspora at 50 ug/disk by disk diffusion assay

Measured: Activity

C/C=C/C=C/C=C/C=C/C=C/C=C/C=C/C=C/C(=O)N(C)[C@@H]1C(=O)N[C@H](C)C(=O)N[C@@H](CC(C)C)C(=O)N[C@@H](CC(C)C)C(=O)N2CCC[C@H]2C(=O)N[C@@H](C)C(=O)N[C@@H](CCC(N)=O)C(=O)O[C@@H]1C
inactive: Microbotryum violaceum | [Chlorella] fusca | Escherichia coli | Aspergillus ruber | Priestia megaterium | Mycotypha microspora

C/C=C/C=C/C=C/C=C/C=C/C=C/C=C/C=C/C(=O)N(C)[C@@H]1C(=O)N[C@H](C)C(=O)N[C@@H](CC(C)C)C(=O)N2CCC[C@H]2C(=O)N[C@@H](C)C(=O)N[C@@H](CCC(N)=O)C(=O)O[C@@H]1C
inactive: Microbotryum violaceum | [Chlorella] fusca | Escherichia coli | Aspergillus ruber | Priestia megaterium | Mycotypha microspora
